The values below come from patent US10173999B2, “Cyclic amine derivative and pharmaceutical use thereof” (Toray Industries, Inc., priority 2015, dated 2019).

The assay deals with mouse partial sciatic nerve ligation model (neuropathic pain). As to the kind of experiment: Mouse partial sciatic nerve ligation model (Seltzer model), von Frey test. It counts as in vivo. As to conditions: for dose from which a statistically significant analgesic action started / persistence of analgesic action / time of strongest analgesic action after oral administration: oral administration; for dose from which a statistically significant analgesic action started: von Frey test; for persistence of analgesic action / time of strongest analgesic action after oral administration: von Frey test at 1, 2, 3 h. The protocol:
The mouse partial sciatic nerve ligation model was prepared in accordance with the method of Seltzer et al. (Malmberg et al., Pain, vol. 76, p. 215-222, 1998).
Slc: ICR mice (5 weeks old, male; from Japan SLC, Inc.) or Cr1: CD1 (ICR) mice (5 weeks old, male; from CHARLES RIVER LABORATORIES JAPAN, INC.) were anesthetized with sodium pentobarbital (70 mg/kg, intraperitoneal administration). The sciatic nerve at the femoral region of the right hind paw of each mouse was exposed and triply ligated tightly with silk suture of 8-0 (from NATSUME SEISAKUSHO CO., LTD.) under a stereomicroscope so that only half thickness of the nerve was trapped in the ligature. A group of mice thus treated was designated as a partial sciatic nerve ligation group. A group of mice whose sciatic nerve was just exposed and not ligated was designated as a sham surgery group.
Evaluation of neuropathic pain (hereinafter referred to as von Frey test) was performed as follows. Mice were conditioned for at least one hour in an acrylic cage for measurement (from NATSUME SEISAKUSHO CO. LTD. or SHINANO SEISAKUSHO) placed on a wire net. Thereafter, using a filament (from North Coast Medical or neuroscience) which exerted a pressure of 0.16 g, the mice were subjected to mechanical tactile stimulus by applying the filament to the plantar surface of the right hind paw 3 times, each for 3 seconds, with an interval of 3 seconds.
Seven days after the sciatic nerve ligation surgery, the compound of Example 1, 2, 3, 4, 5, 7, 8, 9, 10, 11, 12 or 13 (10 mg/kg for each of the compounds of Example 1, 2, 3, 4, 5, 8, 10 and 13, 0.01 to 1 mg/kg for the compound of Example 7, 0.01 to 10 mg/kg for the compound of Example 9; 0.001 to 0.1 mg/kg for the compound of Example 11; and 0.01 to 1 mg/kg for the compound of Example 12) or pregabalin as a positive control (10 mg/kg; Bosche Scientific) was dissolved in distilled water and orally administered to mice of the partial sciatic nerve ligation group. The groups of the mice in the partial sciatic nerve ligation mouse to which the compound of Example 1, 2, 3, 4, 5, 7, 8, 9, 10, 11, 12 or 13 was administered were designated as a “partial sciatic nerve ligation+the compound of Example 1” group; a “partial sciatic nerve ligation+the compound of Example 2” group; a “partial sciatic nerve ligation+the compound of Example 3” group; a “partial sciatic nerve ligation+the compound of Example 4” group; a “partial sciatic nerve ligation+the compound of Example 5” group; a “partial sciatic nerve ligation+the compound of Example 7” group; a “partial sciatic nerve ligation+the compound of Example 8” group; a “partial sciatic nerve ligation+the compound of Example 9” group; a “partial sciatic nerve ligation+the compound of Example 10” group; a “partial sciatic nerve ligation+the compound of Example 11” group; a “partial sciatic nerve ligation+the compound of Example 12” group; and a “partial sciatic nerve ligation+the compound of Example 13” group, respectively. The partial sciatic nerve ligation mouse group to which pregabalin was administered was designated as a “partial sciatic nerve ligation+pregabalin” group. A group wherein distilled water was orally administered to the mice of the partial sciatic nerve ligation group was designated as a “partial sciatic nerve ligation+distilled water” group. A group wherein distilled water was orally administered to the mice of the sham surgery group was designated as a “sham surgery+distilled water” group.
The von Frey test was carried out before oral administration of a test compound (pre-value), one hour, two hours, and three hours after the oral administration of a test compound.
Slc: ICR mice (5 weeks old, male; Japan SLC, Inc.) were anesthetized with sodium pentobarbital (70 mg/kg, intraperitoneal administration).

Where a name gives a salt, the structure may show the parent alone.

On to `CN(C)C1CCN(C(=O)CCc2nccn2C)CC1` [Comparative Example 1, 1-(4-(dimethylamino)piperidin-1-yl)-3-(1-methyl-1H-imidazol-2-yl)propan-1-one hydrochloride], for which the “dose from which a statistically significant analgesic action started” value came to 10 µg/kg; the “persistence of analgesic action” value is “tended to decrease 2 hours and 3 hours later”; the “time of strongest analgesic action after oral administration” value was “one”.

As for `CC(C)n1ccnc1CCC(=O)N1CCC(N(C)C)CC1` [Comparative Example 6, 1-(4-(dimethylamino)piperidin-1-yl)-3-(1-isopropyl-1H-imidazol-2-yl)propan-1-one hydrochloride], the “persistence of analgesic action” value was “tended to decrease 2 hours and 3 hours later”; the “time of strongest analgesic action after oral administration” value is on record as “one”.

`CN(C)C1CCN(C(=O)C[C@H](O)c2nccn2C)CC1` [Example 11, (S)-1-(4-(dimethylamino)piperidin-1-yl)-3-hydroxy-3-(1-methyl-1H-imidazol-2-yl)propan-1-one]: the “dose from which a statistically significant analgesic action started” value was found to be 1 µg/kg. Under “dose of 0.1 mg/kg”, the “time the analgesic action lasted after oral administration” value is 3 h. Further, the “time the analgesic action lasted after oral administration” value (from a dose of 0.001 mg/kg) is 2 h. Also, where the note is “mouse, in vivo”, the “analgesic action in von Frey test (total score)” value is “statistically significant analgesic action”.
